Where only a bound is given, the exact number is not on record here.

Assay [1] relates to KARPAS-299. Put plainly: cells. The conditions noted are these: Homo sapiens, KARPAS-299, 96 h.
Description: Antiproliferative activity against NPM-ALK positive human KARPAS-299 cells assessed as inhibition of cell growth incubated for 96 hrs by CCK-8 assay
The subject of assay [2] is NCI-H2228. Nature of the assay: cells. The note with it: Homo sapiens, NCI-H2228, 96 h.
Description: Antiproliferative activity against EML4-ALK positive human NCI-H2228 cells assessed as inhibition of cell growth incubated for 96 hrs by MTT assay
For assay [3], the system named is A549. Put plainly: cells. The note with it: Homo sapiens, A549, 96 h.
Description: Antiproliferative activity against ALK-negative human A549 cells assessed as inhibition of cell growth incubated for 96 hrs by MTT assay
For assay [4], the system named is HCT-116. Nature of the assay: cells. The note with it: Homo sapiens, HCT-116, 96 h.
Description: Antiproliferative activity against ALK-negative human HCT-116 cells assessed as inhibition of cell growth incubated for 96 hrs by MTT assay
Assay [5] has as its target ALK tyrosine kinase receptor (Homo sapiens, UniProt Q9UM73). Put plainly: Inhibition of wild type N-terminal GST tagged ALK cytoplasmic domain (1058 to 1620 end residues) (unknown origin) expressed in Sf21 cells incubated for 1 hr in presence of ATP.

ALK tyrosine kinase receptor, sequence (Q9UM73 whole entry, the tested form may be a part): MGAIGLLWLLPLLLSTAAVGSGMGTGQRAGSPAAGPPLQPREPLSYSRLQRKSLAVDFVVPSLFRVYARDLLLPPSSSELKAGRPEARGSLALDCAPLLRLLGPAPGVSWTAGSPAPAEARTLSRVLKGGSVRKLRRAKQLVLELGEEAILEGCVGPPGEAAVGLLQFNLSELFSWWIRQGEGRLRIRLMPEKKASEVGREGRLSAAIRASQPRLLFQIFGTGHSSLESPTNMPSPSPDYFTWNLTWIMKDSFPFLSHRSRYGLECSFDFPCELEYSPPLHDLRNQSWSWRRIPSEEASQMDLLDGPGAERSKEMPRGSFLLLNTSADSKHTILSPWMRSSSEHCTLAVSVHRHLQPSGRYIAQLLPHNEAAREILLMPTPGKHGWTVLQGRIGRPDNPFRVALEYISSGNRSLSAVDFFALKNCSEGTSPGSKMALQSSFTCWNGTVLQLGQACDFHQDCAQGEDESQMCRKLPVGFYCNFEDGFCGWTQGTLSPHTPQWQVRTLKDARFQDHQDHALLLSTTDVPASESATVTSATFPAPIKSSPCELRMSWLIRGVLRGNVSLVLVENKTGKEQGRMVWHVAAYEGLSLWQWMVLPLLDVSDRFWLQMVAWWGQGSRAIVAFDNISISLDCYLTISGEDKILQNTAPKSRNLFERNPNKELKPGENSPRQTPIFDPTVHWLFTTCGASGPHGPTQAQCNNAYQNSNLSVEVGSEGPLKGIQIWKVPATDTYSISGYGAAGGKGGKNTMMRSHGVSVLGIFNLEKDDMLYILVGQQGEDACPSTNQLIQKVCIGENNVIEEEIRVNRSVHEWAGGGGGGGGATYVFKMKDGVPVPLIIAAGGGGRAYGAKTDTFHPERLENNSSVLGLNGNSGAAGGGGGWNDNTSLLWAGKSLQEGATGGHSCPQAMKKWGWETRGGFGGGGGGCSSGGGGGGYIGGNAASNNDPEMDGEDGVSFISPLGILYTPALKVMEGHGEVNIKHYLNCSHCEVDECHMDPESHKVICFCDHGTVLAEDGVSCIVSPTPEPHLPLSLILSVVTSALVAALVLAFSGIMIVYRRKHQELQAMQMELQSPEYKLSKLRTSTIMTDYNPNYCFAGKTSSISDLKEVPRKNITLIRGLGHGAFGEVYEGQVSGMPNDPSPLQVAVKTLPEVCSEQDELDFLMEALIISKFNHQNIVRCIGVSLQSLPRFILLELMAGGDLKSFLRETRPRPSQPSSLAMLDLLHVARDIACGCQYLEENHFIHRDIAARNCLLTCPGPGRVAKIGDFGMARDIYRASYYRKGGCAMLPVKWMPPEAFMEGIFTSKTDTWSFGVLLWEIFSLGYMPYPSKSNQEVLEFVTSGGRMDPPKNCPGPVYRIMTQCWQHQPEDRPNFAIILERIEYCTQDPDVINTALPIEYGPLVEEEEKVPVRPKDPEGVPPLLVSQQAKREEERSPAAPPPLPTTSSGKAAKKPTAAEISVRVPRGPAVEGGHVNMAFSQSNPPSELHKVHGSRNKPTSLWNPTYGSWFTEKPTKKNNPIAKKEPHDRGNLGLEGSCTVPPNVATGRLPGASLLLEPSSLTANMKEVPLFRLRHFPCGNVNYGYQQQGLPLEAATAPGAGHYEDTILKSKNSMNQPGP

As to `Cc1cc(Nc2ncc(Cl)c(Nc3ccccc3S(=O)(=O)C(C)C)n2)c(OC(C)C)cc1C1CCN(C(=S)SCCN2CCCC2)CC1`, the IC50 (in general, the point on the concentration scale where inhibition reaches its midpoint) came out at 220 nM in assay [1], 280 nM in assay [2], 1720 nM in assay [3] and 4670 nM in assay [4].
On to `Cc1cc(Nc2ncc(Cl)c(Nc3ccccc3S(=O)(=O)C(C)C)n2)c(OC(C)C)cc1C1CCN(C(=S)SCC(=O)N2CCCCC2)CC1`, for which the IC50 in assay [1] is 150 nM; in assay [2], 1320 nM; in assay [3] it was above 10000 nM; in assay [4], 3330 nM.
`Cc1cc(Nc2ncc(Cl)c(Nc3ccccc3S(=O)(=O)C(C)C)n2)c(OC(C)C)cc1C1CCN(C(=O)SCC(=S)N2CCN(C3CCCC3)CC2)CC1`: the IC50 is 1700 nM in assay [1], 350 nM in assay [2], above 10000 nM in assay [3] and 5810 nM in assay [4].
The like results for `Cc1cc(Nc2ncc(Cl)c(Nc3ccccc3S(=O)(=O)C(C)C)n2)c(OC(C)C)cc1C1CCN(C(=O)SCC(=S)N2CCCCC2)CC1` were, in that order, 150 nM, 380 nM, above 10000 nM and 3360 nM.
Turning to `Cc1cc(Nc2ncc(Cl)c(Nc3ccccc3S(=O)(=O)C(C)C)n2)c(OC(C)C)cc1C1CCN(C(=S)SCCN2CCCCC2)CC1`, the 50% inhibitory concentration (IC50) in assay [1] was 90 nM; in assay [2], 280 nM; in assay [3], above 10000 nM; in assay [4], 2450 nM; in assay [5], above 100 nM.
Regarding `Cc1cc(Nc2ncc(Cl)c(Nc3ccccc3S(=O)(=O)C(C)C)n2)c(OC(C)C)cc1C1CCN(C(=S)SCCN(C)C)CC1`, the IC50 in assay [1] is 110 nM; in assay [2], 180 nM; in assay [3] it was above 10000 nM; in assay [4] it was 1070 nM.
The like results for `Cc1cc(Nc2ncc(Cl)c(Nc3ccccc3S(=O)(=O)C(C)C)n2)c(OC(C)C)cc1C1CCN(C(=O)SCC(=S)N2CCN(CCO)CC2)CC1` were, in that order, 80 nM, 120 nM, above 10000 nM and 1530 nM.
Turning to `Cc1cc(Nc2ncc(Cl)c(Nc3ccccc3S(=O)(=O)C(C)C)n2)c(OC(C)C)cc1C1CCN(C(=S)SCC(=O)N2CCOCC2)CC1`, the half-inhibitory concentration (IC50) is 100 nM in assay [1], 1600 nM in assay [2], above 10000 nM in assay [3] and above 10000 nM in assay [4].
Take `CCN(CC)C(=S)CSC(=O)N1CCC(c2cc(OC(C)C)c(Nc3ncc(Cl)c(Nc4ccccc4S(=O)(=O)C(C)C)n3)cc2C)CC1`: the IC50 in assay [1] is 440 nM; in assay [2], 1230 nM; in assay [3] it was above 10000 nM; in assay [4], 2510 nM.
As for `Cc1cc(Nc2ncc(Cl)c(Nc3ccccc3S(=O)(=O)C(C)C)n2)c(OC(C)C)cc1C1CCN(C(=O)SCC(=S)N2CCN(C)CC2)CC1`, the concentration for half-maximal inhibition (IC50) in assay [1] is 140 nM; in assay [2] it was 320 nM; in assay [3], above 10000 nM; in assay [4] it was 2700 nM; in assay [5] it was above 100 nM.
Regarding `Cc1cc(Nc2ncc(Cl)c(Nc3ccccc3S(=O)(=O)C(C)C)n2)c(OC(C)C)cc1C1CCN(C(=O)SCC(=S)N2CCCC2)CC1`, the concentration for half-maximal inhibition (IC50) in assay [1] is 860 nM; in assay [2] it was 1210 nM; in assay [3], above 10000 nM; in assay [4], 3170 nM.
Take `Cc1cc(Nc2ncc(Cl)c(Nc3ccccc3S(=O)(=O)C(C)C)n2)c(OC(C)C)cc1C1CCN(C(=O)SCC(=S)N2CCNC(C)C2)CC1` (stereo not given): the IC50 in assay [1] is 210 nM; in assay [2] it was 160 nM; in assay [3], above 10000 nM; in assay [4], 2840 nM; in assay [5], above 100 nM.
Regarding `Cc1cc(Nc2ncc(Cl)c(Nc3ccccc3S(=O)(=O)C(C)C)n2)c(OC(C)C)cc1C1CCN(C(=S)SCC(N)=O)CC1`, the IC50 in assay [1] is 180 nM; in assay [2], 270 nM; in assay [3], above 10000 nM; in assay [4], 8150 nM.
Consider `Cc1cc(Nc2ncc(Cl)c(Nc3ccccc3S(=O)(=O)C(C)C)n2)c(OC(C)C)cc1C1CCN(C(=O)SCC(=S)N2CCC[C@H]2CO)CC1`, for which the IC50 in assay [1] is 110 nM; in assay [2], 220 nM; in assay [3], above 10000 nM; in assay [4], 4890 nM.
The like results for `Cc1cc(Nc2ncc(Cl)c(Nc3ccccc3S(=O)(=O)C(C)C)n2)c(OC(C)C)cc1C1CCN(C(=O)SCC(=S)N2CCOCC2)CC1` were, in that order, 120 nM, 650 nM, above 10000 nM and 4950 nM.
For `Cc1cc(Nc2ncc(Cl)c(Nc3ccccc3S(=O)(=O)C(C)C)n2)c(OC(C)C)cc1C1CCN(C(=O)SCC(=S)N2CC(C)N(C)C(C)C2)CC1` (stereo not given), the IC50 in assay [1] is 100 nM; in assay [2], 210 nM; in assay [3], above 10000 nM; in assay [4] it was 3960 nM; in assay [5] it was above 100 nM.
With `Cc1cc(Nc2ncc(Cl)c(Nc3ccccc3S(=O)(=O)C(C)C)n2)c(OC(C)C)cc1C1CCN(C(=S)SCC(=O)NC2CCCCC2)CC1`, the IC50 in assay [1] is 590 nM; in assay [2], 2660 nM; in assay [3], above 10000 nM; in assay [4] it was 7830 nM.
The like results for `CCN1CCN(C(=S)CSC(=O)N2CCC(c3cc(OC(C)C)c(Nc4ncc(Cl)c(Nc5ccccc5S(=O)(=O)C(C)C)n4)cc3C)CC2)CC1` were, in that order, 320 nM, 130 nM, above 10000 nM and 2060 nM.
With `Cc1cc(Nc2ncc(Cl)c(Nc3ccccc3S(=O)(=O)C(C)C)n2)c(OC(C)C)cc1C1CCN(C(=O)SCC(=S)N2CCSCC2)CC1`, the IC50 in assay [1] was 230 nM; in assay [2] it was 350 nM; in assay [3] it was above 10000 nM; in assay [4], 5280 nM.
For `Cc1cc(Nc2ncc(Cl)c(Nc3ccccc3S(=O)(=O)C(C)C)n2)c(OC(C)C)cc1C1CCN(C(=S)SCCN2CCN(C)CC2)CC1`, the half-inhibitory concentration (IC50) in assay [1] is 170 nM; in assay [2], 270 nM; in assay [3], above 10000 nM; in assay [4], 2190 nM; in assay [5], above 100 nM.
In the case of `CCN(CC)C(=O)CSC(=S)N1CCC(c2cc(OC(C)C)c(Nc3ncc(Cl)c(Nc4ccccc4S(=O)(=O)C(C)C)n3)cc2C)CC1`, the half-inhibitory concentration (IC50) in assay [1] was 270 nM; in assay [2] it was 860 nM; in assay [3] it was above 10000 nM; in assay [4] it was 4740 nM.
The like results for `Cc1cc(Nc2ncc(Cl)c(Nc3ccccc3S(=O)(=O)C(C)C)n2)c(OC(C)C)cc1C1CCN(C(=S)SCC(=O)N2CCSCC2)CC1` were, in that order, 80 nM, 630 nM, above 10000 nM and 3860 nM.
Turning to `Cc1cc(Nc2ncc(Cl)c(Nc3ccccc3S(=O)(=O)C(C)C)n2)c(OC(C)C)cc1C1CCN(C(=S)SCC(=O)NC(C)C)CC1`, the half-inhibitory concentration (IC50) is 140 nM in assay [1], 360 nM in assay [2], above 10000 nM in assay [3] and above 10000 nM in assay [4].
For the molecule `Cc1cc(Nc2ncc(Cl)c(Nc3ccccc3S(=O)(=O)C(C)C)n2)c(OC(C)C)cc1C1CCN(C(=S)SCC(=O)N(C)C)CC1`, the IC50 in assay [1] is 250 nM; in assay [2] it was 1540 nM; in assay [3], above 10000 nM; in assay [4], 5930 nM.
Turning to `CCN(CC)CCCSC(=S)N1CCC(c2cc(OC(C)C)c(Nc3ncc(Cl)c(Nc4ccccc4S(=O)(=O)C(C)C)n3)cc2C)CC1`, the IC50 in assay [1] is 500 nM; in assay [2] it was 490 nM; in assay [3] it was above 10000 nM; in assay [4], above 10000 nM; in assay [5], above 100 nM.
In the case of `Cc1cc(Nc2ncc(Cl)c(Nc3ccccc3S(=O)(=O)C(C)C)n2)c(OC(C)C)cc1C1CCN(C(=S)SCC(=O)N2CCC(C)CC2)CC1`, the half-inhibitory concentration (IC50) in assay [1] was 310 nM; in assay [2] it was 2030 nM; in assay [3] it was above 10000 nM; in assay [4], 5460 nM.
On to `Cc1cc(Nc2ncc(Cl)c(Nc3ccccc3S(=O)(=O)C(C)C)n2)c(OC(C)C)cc1C1CCN(C(=O)SCC(=S)N2CCN(S(C)(=O)=O)CC2)CC1`, for which the half-maximal inhibitory concentration (IC50) in assay [1] is 340 nM; in assay [2] it was 160 nM; in assay [3], above 10000 nM; in assay [4], 3540 nM.
As for `CCN(CC)CCSC(=S)N1CCC(c2cc(OC(C)C)c(Nc3ncc(Cl)c(Nc4ccccc4S(=O)(=O)C(C)C)n3)cc2C)CC1`, the IC50 was 260 nM in assay [1], 230 nM in assay [2], above 10000 nM in assay [3] and 980 nM in assay [4].
Turning to `Cc1cc(Nc2ncc(Cl)c(Nc3ccccc3S(=O)(=O)C(C)C)n2)c(OC(C)C)cc1C1CCN(C(=S)SCCN2CCOCC2)CC1`, the IC50 is 320 nM in assay [1], 170 nM in assay [2], above 10000 nM in assay [3] and 3780 nM in assay [4].
The like results for `Cc1cc(Nc2ncc(Cl)c(Nc3ccccc3S(=O)(=O)C(C)C)n2)c(OC(C)C)cc1C1CCN(C(=S)SCC(=O)NC2CCCC2)CC1` were, in that order, 130 nM, 410 nM, above 10000 nM and 3520 nM.
The like results for `Cc1cc(Nc2ncc(Cl)c(Nc3ccccc3S(=O)(=O)C(C)C)n2)c(OC(C)C)cc1C1CCN(C(=S)SCC(=O)NC2CCC2)CC1` were, in that order, 140 nM, 450 nM, above 10000 nM and 7030 nM.
The like results for `Cc1cc(Nc2ncc(Cl)c(Nc3ccccc3S(=O)(=O)C(C)C)n2)c(OC(C)C)cc1C1CCN(C(=O)SCC(=S)N(C)C)CC1` were, in that order, 230 nM, 850 nM, above 10000 nM and 2730 nM.
For `Cc1cc(Nc2ncc(Cl)c(Nc3ccccc3S(=O)(=O)C(C)C)n2)c(OC(C)C)cc1C1CCN(C(=O)SCC(=S)N(C)CCN(C)C)CC1`, the IC50 in assay [1] is 480 nM; in assay [2] it was 370 nM; in assay [3] it was above 10000 nM; in assay [4], 6550 nM.
Take `Cc1cc(Nc2ncc(Cl)c(Nc3ccccc3S(=O)(=O)C(C)C)n2)c(OC(C)C)cc1C1CCNCC1` [CERITINIB]: the IC50 amounted to 30 nM in assay [2] and 1070 nM in assay [4].

These data come from ChEMBL document CHEMBL5143704, “Discovery of 2,4-diarylaminopyrimidine derivatives bearing dithiocarbamate moiety as novel ALK inhibitors” (Bioorg Med Chem, 2022).
